Earlier results on two molecules are cited in patent US20210400979A1, “ANTI-VIRAL FACE MASK AND FILTER MATERIALS” (priority 2020, published 2021).

Data set [1] relates to RTCs of SARS-CoV (RNA-synthesizing activity). Particulars: RTCs isolated from SARS-CoV infected cells, various Zn^2+ concentrations (FIG. 13A).

As to zinc picolinate, the “water solubility (in words)” value is recorded as “moderately water soluble”.

In the case of `[Zn+2]` [Zn^2+], the “RNA-synthesizing activity of the RTCs of the virus” value in data set [1] is recorded as “efficiently inhibits”.
